Key:
BCL-2 = target: T1, BCL-2 (Homo sapiens, UniProt P10415); assay: Binding activity for BCL-2 (HTRF, biotin-labeled BIM); settings: His-tagged BCL-2, biotin-labeled BIM
T1 construct: purchased R&D systems 827-BC-050
Procedure: In vitro BCL-2-binding activity was tested by the following method.
(§1) Reagents used in this experiment: His-tagged BCL-2 protein (R&D systems, Cat #827-BC-050); biotin-labeled BIM protein (R&D, Cat #3526/1); binding buffer (cisbio, Cat #62DLBDDF); assay buffer (cisbio, Cat #62DB1FDG); MAb anti-6His-Eu cryptate (cisbio, Cat #61HI2KLA); and affinity streptomycin linked XL665 (cisbio, Cat #611SAXLA).
The in vitro binding assay described below can determine the binding activity of test compounds for BCL-2.
(§2) The test compounds were dissolved in dimethyl sulfoxide and diluted to gradient concentrations as required for the experiment, and the compounds at various concentrations formulated in dimethyl sulfoxide were subjected to a 100-fold dilution with a binding buffer. BCL-2 was diluted to the corresponding concentration with a binding buffer solution, and added to a white 384-well plate at 4 μL/well. Then the diluted test compound was added into the white 384-well plate at 2 μL/well. The plate was incubated at 25° C. for 1 h after the mixture was uniformly mixed. Biotin-labeled BIM protein was diluted to the corresponding concentration with a binding buffer, and added to a white 384-well plate at 4 μL/well. The plate was incubated at 25° C. for 2 h after the mixture was uniformly mixed. The MAb anti-6His-Eu cryptate and the affinity streptomycin linked XL665 were each diluted to the corresponding concentration with an assay buffer, and added to a white 384-well plate at 5 μL/well. The plate was incubated at 25° C. for 2-4 h after the mixture was uniformly mixed. The signal values were read with the HTRF program in a microplate reader (BMG Labtech, model: PHERAstar FS).

NCI-H146 cells = assay: Inhibition of proliferation of NCI-H146 cells (CellTiter-Glo); assay type: cell-based; settings: Homo sapiens, 72 h, 3 days, read-out: Inhibitory activity IC50 (nM) for the proliferation of NCI-H146 cells
Procedure: (§3) In vitro inhibitory activity for the proliferation of RS4;11 cells and NCI-H146 cells was tested by the following method.
(§4) Reagents used in this experiment: RPMI-1640 medium (HyCLone, Cat #SH30243018); fetal bovine serum (Gibco, Cat #10099-141); pancreatin (Gibco, Cat #25200-072); Cell Titer-Glo (Promega, Cat #G7571).
(§5) Materials used: RS4;11 cells (Nanjing Kebai Biotechnology Co., Ltd, Cat #CBP60641); and NCI-H146 cells (ATCC, Cat #HTB-173).
(§6) The in vitro cell proliferation assay described below can determine the inhibitory activity of the test compounds for the proliferation of RS4;11 cells and NCI-H146 cells.
(§7) RS4;11 cells (or NCI-H146 cells) were cultured in an RPMI-1640 culture medium containing 10% FBS, and were passaged for 2-3 times a week in a passage ratio of 1:3 or 1:5. During passage, the cells were transferred to a centrifuge tube, and centrifuged at 1200 rpm for 3 min. The supernatant was discarded, and fresh culture medium was added to resuspend the cells. 90 μL of cell suspension was added to a 96-well cell culture plate, wherein RS4;11 cells and NCI-H146 cells were added at a density of 2.22×10^5 cells/mL. Only 100 μL of complete medium (RPMI-1640 medium containing 10% FBS) was added to the periphery of the 96-well plate. The plate was incubated in an incubator for 24 h (37° C., 5% CO2).
(§8) The test sample was diluted to a proper concentration gradient with dimethyl sulfoxide as required for the experiment. 5 μL of the solution of the test compound prepared in a gradient concentration was added to 95 μL of fresh culture medium and mixed uniformly, and then 10 μL of the culture medium containing the above compound was added to a cell culture plate. The cell culture plate was incubated in an incubator for 3 days (37° C., 5% CO2). 50 μL of CellTiter-Glo reagent was added into each well of the 96-well cell culture plate. The plate was let stand for 5-10 min away from the light at room temperature. The chemiluminescence signals were read by a microplate reader (BMG Labtech, model: PHERAstar FS) and the data were processed by GraphPad software.

RS4;11 cells = assay: Inhibition of proliferation of RS4;11 cells (CellTiter-Glo); assay type: cell-based; settings: Homo sapiens, 72 h, 3 days, read-out: Inhibitory activity IC50 (nM) for the proliferation of RS4;11 cells
Procedure: as §3, §4, §5, §6, §7, §8

BCL-xL = target: T2, BCL-xL (Homo sapiens, UniProt Q07817); assay: Binding activity for BCL-xL (HTRF, biotin-labeled BIM); settings: His-tagged BCL-xL
T2 construct: purchased R&D 894-BX-050
Procedure: In vitro BCL-xL-binding activity was tested by the following method.
as §1, with “BCL-xL” for “BCL-2”, “(R&D,” for “(R&D systems,”, “#894-BX-050);” for “#827-BC-050);”
The in vitro binding assay described below can determine the binding activity of test compounds for BCL-xL.
as §2, with “BCL-xL” for “BCL-2”, “buffer,” for “buffer solution,”, “to” for “into”

T1 sequence (P10415 whole entry): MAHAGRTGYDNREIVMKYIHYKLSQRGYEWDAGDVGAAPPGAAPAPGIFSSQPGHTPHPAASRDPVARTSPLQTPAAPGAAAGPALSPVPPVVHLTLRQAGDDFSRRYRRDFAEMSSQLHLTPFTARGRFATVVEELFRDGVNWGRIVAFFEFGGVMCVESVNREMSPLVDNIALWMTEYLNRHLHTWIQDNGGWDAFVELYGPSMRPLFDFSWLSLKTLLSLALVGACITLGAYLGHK
T2 sequence (Q07817 whole entry): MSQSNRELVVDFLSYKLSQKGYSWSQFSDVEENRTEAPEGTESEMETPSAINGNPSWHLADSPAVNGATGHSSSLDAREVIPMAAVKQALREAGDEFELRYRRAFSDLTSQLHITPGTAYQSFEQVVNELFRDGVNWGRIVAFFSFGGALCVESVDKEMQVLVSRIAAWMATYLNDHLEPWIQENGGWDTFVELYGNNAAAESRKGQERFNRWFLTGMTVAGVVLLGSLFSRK

Ki (BCL-2) [nM]	IC50 (NCI-H146 cells) [nM]	IC50 (RS4;11 cells) [nM]	Ki (BCL-xL) [nM]	Structure (SMILES)
0.07	36	23	0.09	O=C(NS(=O)(=O)c1ccc(N[C@@H](CSc2ccccc2)C[C@H]2CCCN2)c(S(=O)(=O)C(F)(F)F)c1)c1ccc(N2CCC([C@@H](O)c3ccccc3-c3ccc(Cl)cc3)CC2)cc1 [Example 2-1, 4-(4-((R)-(4′-chloro-[1,1′-biphenyl]-2-yl)(hydroxy)methyl)piperidin-1-yl)-N-((4-(((R)-1-(phenylthio)-3-((R)-pyrrolidin-2-yl)propan-2-yl)amino)-3-((trifluoromethyl)sulfonyl)phenyl)sulfonyl)benzamide]
0.13	55	9	0.45	O=C(NS(=O)(=O)c1ccc(N[C@@H](CSc2ccccc2)C[C@H]2CCCN2CCCO)c(S(=O)(=O)C(F)(F)F)c1)c1ccc(N2CCC([C@@H](O)c3ccccc3-c3ccc(Cl)cc3)CC2)cc1 [Example 2-5, 4-(4-((R)-(4′-chloro-[1,1′-biphenyl]-2-yl)(hydroxy)methyl)piperidin-1-yl)-N-((4-(((R)-1-((R)-1-(3-hydroxypropyl)pyrrolidin-2-yl)-3-(phenylthio)propan-2-yl)amino)-3-((trifluoromethyl)sulfonyl)phenyl)sulfonyl)benzamide]
0.04	16	5	0.1	O=C(NS(=O)(=O)c1ccc(N[C@@H](CSc2ccccc2)C[C@@H]2CCCN2CCCO)c(S(=O)(=O)C(F)(F)F)c1)c1ccc(N2CCC([C@@H](O)c3ccccc3-c3ccc(Cl)cc3)CC2)cc1 [Example 2-11, 4-(4-((R)-(4′-chloro-[1,1′-biphenyl]-2-yl)(hydroxy)methyl)piperidin-1-yl)-N-((4-(((R)-1-((S)-1-(3-hydroxypropyl)pyrrolidin-2-yl)-3-(phenylthio)propan-2-yl)amino)-3-((trifluoromethyl)sulfonyl)phenyl)sulfonyl)benzamide]
0.13	94	34	0.32	CO[C@@H](c1ccccc1-c1ccc(Cl)cc1)C1CCN(c2ccc(C(=O)NS(=O)(=O)c3ccc(N[C@@H](CSc4ccccc4)C[C@H]4CCCN4CCO)c(S(=O)(=O)C(F)(F)F)c3)cc2)CC1 [Example 2-4, 4-(4-((R)-(4′-chloro-[1,1′-biphenyl]-2-yl)(methoxy)methyl)piperidin-1-yl)-N-((4-(((R)-1-((R)-1-(2-hydroxyethyl)pyrrolidin-2-yl)-3-(phenylthio)propan-2-yl)amino)-3-((trifluoromethyl)sulfonyl)phenyl)sulfonyl)benzamide]
0.11	46	18	0.3	O=C(NS(=O)(=O)c1ccc(N[C@@H](CSc2ccccc2)C[C@@H]2CCCN2)c(S(=O)(=O)C(F)(F)F)c1)c1ccc(N2CCC([C@@H](O)c3ccccc3-c3ccc(Cl)cc3)CC2)cc1 [Example 2-8, 4-(4-((R)-(4′-chloro-[1,1′-biphenyl]-2-yl)(hydroxy)methyl)piperidin-1-yl)-N-((4-(((R)-1-(phenylthio)-3-((S)-pyrrolidin-2-yl)propan-2-yl)amino)-3-((trifluoromethyl)sulfonyl)phenyl)sulfonyl)benzamide]
0.04			0.15	O=C(NS(=O)(=O)c1ccc(N[C@@H](CSc2ccccc2)C[C@@H]2CCCN2)c(S(=O)(=O)C(F)(F)F)c1)c1ccc(N2CCC([C@@H](O)c3ccccc3-c3ccc(C(F)(F)F)cc3)CC2)cc1 [Example 2-12, 4-(4-((R)-hydroxy(4′-(trifluoromethyl)-[1,1′-biphenyl]-2-yl)methyl)piperidin-1-yl)-N-((4-(((R)-1-(phenylthio)-3-((S)-pyrrolidin-2-yl)propan-2-yl)amino)-3-((trifluoromethyl)sulfonyl)phenyl)sulfonyl)benzamide]
0.1	74	58	0.17	CO[C@@H](c1ccccc1-c1ccc(Cl)cc1)C1CCN(c2ccc(C(=O)NS(=O)(=O)c3ccc(N[C@@H](CSc4ccccc4)C[C@H]4CCCN4)c(S(=O)(=O)C(F)(F)F)c3)cc2)CC1 [Example 2-3, 4-(4-((R)-(4′-chloro-[1,1′-biphenyl]-2-yl)(methoxy)methyl)piperidin-1-yl)-N-((4-(((R)-1-(phenylthio)-3-((R)-pyrrolidin-2-yl)propan-2-yl)amino)-3-((trifluoromethyl)sulfonyl)phenyl)sulfonyl)benzamide]
0.04	35	7	0.3	O=C(NS(=O)(=O)c1ccc(N[C@@H](CSc2ccccc2)C[C@@H]2CCCN2CCO)c(S(=O)(=O)C(F)(F)F)c1)c1ccc(N2CCC([C@@H](O)c3ccccc3-c3ccc(C(F)(F)F)cc3)CC2)cc1 [Example 2-13, 4-(4-((R)-hydroxy(4′-(trifluoromethyl)-[1,1′-biphenyl]-2-yl)methyl)piperidin-1-yl)-N-((4-(((R)-1-((S)-1-(2-hydroxyethyl)pyrrolidin-2-yl)-3-(phenylthio)propan-2-yl)amino)-3-((trifluoromethyl)sulfonyl)phenyl)sulfonyl)benzamide]
0.34				CC(Sc1ccccc1)[C@@H](CCN(C)CCO)Nc1ccc(S(=O)(=O)NC(=O)c2ccc(N3CCC([C@@H](O)c4ccccc4-c4ccc(C(F)(F)F)cc4)CC3)cc2)cc1S(=O)(=O)C(F)(F)F (stereo partly drawn) [Example 2-7, 4-(4-((R)-hydroxy(4′-(trifluoromethyl)-[1,1′-biphenyl]-2-yl)methyl)piperidin-1-yl)-N-((4-(((3R)-1-((2-hydroxyethyl)(methyl)amino)-4-(phenylthio)pentan-3-yl)amino)-3-((trifluoromethyl)sulfonyl)phenyl)sulfonyl)benzamide]

From patent US20230250077A1, “SULFONYLBENZAMIDE DERIVATIVE AND CONJUGATE THEREOF, PREPARATION METHOD THEREFOR AND USE THEREOF” (Jiangsu Hengrui Pharmaceuticals Co., Ltd., priority 2020, published 2023)
